Measurements taken from patent US20250281453A1, “COMBINATION THERAPIES COMPRISING QTX125” (QUIMATRYX, S.L., priority 2022, published 2025).

Experiments:
HDAC 6 = target: T1, HDAC 6 (Homo sapiens, UniProt Q9UBN7); conditions: cited from earlier work
T1 sequence (Q9UBN7 1-1215): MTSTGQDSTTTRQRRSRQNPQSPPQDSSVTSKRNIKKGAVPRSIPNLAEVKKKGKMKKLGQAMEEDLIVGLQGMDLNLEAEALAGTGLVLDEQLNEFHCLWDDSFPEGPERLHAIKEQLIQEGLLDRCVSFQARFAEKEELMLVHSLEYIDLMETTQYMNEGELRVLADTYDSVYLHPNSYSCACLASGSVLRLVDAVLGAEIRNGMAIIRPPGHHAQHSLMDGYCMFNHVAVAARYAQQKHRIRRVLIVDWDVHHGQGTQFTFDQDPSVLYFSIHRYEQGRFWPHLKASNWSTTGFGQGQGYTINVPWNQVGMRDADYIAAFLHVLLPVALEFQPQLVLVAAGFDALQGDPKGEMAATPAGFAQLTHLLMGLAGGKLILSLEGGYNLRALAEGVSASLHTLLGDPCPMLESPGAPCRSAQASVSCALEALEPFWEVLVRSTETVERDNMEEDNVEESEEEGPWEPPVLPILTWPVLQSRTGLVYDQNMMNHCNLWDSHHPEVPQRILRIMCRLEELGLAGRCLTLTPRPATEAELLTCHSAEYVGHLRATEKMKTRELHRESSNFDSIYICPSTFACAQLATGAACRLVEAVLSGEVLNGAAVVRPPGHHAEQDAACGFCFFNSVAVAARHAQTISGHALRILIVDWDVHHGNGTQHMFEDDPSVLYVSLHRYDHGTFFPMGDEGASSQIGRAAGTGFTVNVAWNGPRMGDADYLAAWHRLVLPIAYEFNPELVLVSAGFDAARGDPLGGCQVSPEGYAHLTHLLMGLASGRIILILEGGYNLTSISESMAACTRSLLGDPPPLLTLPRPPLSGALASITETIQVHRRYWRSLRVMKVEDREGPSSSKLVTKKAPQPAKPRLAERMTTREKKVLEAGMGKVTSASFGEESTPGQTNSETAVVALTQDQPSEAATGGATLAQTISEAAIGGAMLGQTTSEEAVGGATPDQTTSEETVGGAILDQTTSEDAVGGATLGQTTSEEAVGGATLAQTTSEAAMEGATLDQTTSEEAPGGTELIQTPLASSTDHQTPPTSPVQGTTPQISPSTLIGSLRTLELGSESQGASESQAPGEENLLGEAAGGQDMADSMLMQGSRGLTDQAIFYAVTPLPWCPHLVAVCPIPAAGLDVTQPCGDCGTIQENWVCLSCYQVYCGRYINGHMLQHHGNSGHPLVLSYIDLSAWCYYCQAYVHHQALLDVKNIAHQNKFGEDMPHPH

[1] = test system: HCT-116 colonic cancer cells; assay: QTX125-containing combination therapy, hexosaminidase cell viability; type: cell-based; conditions: for combination index (C.I.): HCT-116; for EC50: Homo sapiens, HCT-116, HCT-116
Protocol: To assess the oncolytic efficacy of QTX125-containing combination therapies in vitro, colonic, pancreatic, hepatic and ovarian tumour cells were administered sorafenib, gemcitabine or bortezomib at EC25, EC50 and EC75 doses. QTX125 was co-administered in order to produce a dose response curve.
To prepare cells for viability assays, cells were transferred into 96 well tissue culture plates (Cultek), and resuspended in 100 µL at the following densities: 10,000 cells/well (Hep-G2 and MiaPaCa-2), 5000 cells/well (Panc-1 and SK-OV-3) or 3000 cells/well (HCT-116). Following 24 hours of incubation, media was removed and replaced with 100 µL media spiked with QTX125 and the test chemotherapeutic agents. Stock solutions for the agents used in this study are shown below in Table 1. Cells were incubated for a further 72 hours before cell viability was assessed using both ALAMAR® and hexosaminidase assays.
For the hexosaminidase assay, media containing QTX125 and the test chemotherapeutic agents was removed, and cells were washed once with PBS. 60 μL of substrate solution (containing: 7.5 mM p-nitrophenol-N-acetyl-beta-D-glucosamide [Sigma N-9376], 0.1 M sodium citrate, pH 5.0 and 0.25% Triton X-100) was added to each well and cells were incubated at 37° C. for at least 1 hour. Incubating cells in this manner causes the substrate solution to become bright yellow, at which point 90 μL of developer solution (containing 50 mM Glycine pH 10.4 and 5 mM EDTA) was added to each well. Absorbance at 410 nm was recorded using a plate reader.
Control values were normalised to 100% and percentage (%) viability was calculated. Data were used to plot log dose-response curves using a sigmoid dose-response (variable slope) equation. EC50 values were obtained using Equation 1, where ‘X’ is the logarithmic concentration; ‘Y’ is the response output and it is assumed that Y starts at bottom of the graph and reaches the top with an overall sigmoid shape.
Cls were obtained using Equation 2, where (Dm) 1 is the ECx concentration of QTX125 and (D) 1 is the ECx concentration of QTX125 in the presence of sorafenib, gemcitabine or bortezomib.
In order to assess the oncolytic efficacy of QTX125-containing combination therapies, monotherapy EC25, EC50 and EC75 doses for sorafenib, gemcitabine and bortezomib were calculated (as per Experiment 3) and administered to wells at these fixed concentrations. QTX125 was co-administered at a range of concentrations, in order to plot a dose-response curve such that the EC50 dose of QTX125 could be calculated in the presence of sorafenib/gemcitabine/bortezomib. QTX125 was administered to cells at a starting high-dose, and a 1:1 dilution was completed thereafter. In this part of the study, only the hexosaminidase assay was employed to assess cell viability following treatment with QTX125-containing combination therapies.
It should be noted that it was not possible to determine the appropriate concentrations for gemcitabine in all cell lines tested. In cells resistant to gemcitabine, nominal concentrations were used in place of EC25, EC50 and EC75 doses (e.g., nominal doses of 1, 10 and 100 µM were used in Panc-1 and Hep-G2 cells).

[2] = Genotoxicity (clastogenicity, aneugenicity); conditions: unlike other histone deacetylase inhibitors
[3] = + bortezomib at EC25 dose (0.005 μM)
[4] = + bortezomib at EC50 dose (0.007 μM)
[5] = + bortezomib at EC75 dose (0.01 μM)
[6] = + gemcitabine at EC25 dose (0.001 μM)
[7] = + sorafenib at EC25 dose (2 μM)
[8] = + sorafenib at EC50 dose (3.6 μM)
[9] = + sorafenib at EC75 dose (6.5 μM)

## O=C(NO)c1ccc(CNC(=O)c2[nH]c(-c3ccc(O)cc3)cc2-c2ccoc2)cc1 [QTX125, 3-(3-Furyl)-N-{4-[(hydroxyamino)carbonyl]benzyl}-5-(4-hydroxyphenyl)-1 Hpyrrole-2-carboxamide]
HDAC 6
  HDAC 6 inhibition: highly selective and highly potent
[1]; [3]
  combination index (C.I.): 1.0 arbitrary units
  EC50: 2.46 µM
[1]; [4]
  combination index (C.I.): 1.1 arbitrary units
  EC50: 2.54 µM
[1]; [5]
  combination index (C.I.): 0.9 arbitrary units
  EC50: 2.14 µM
[1]; [6]
  combination index (C.I.): 1.1 arbitrary units
  EC50: 0.322 µM
[1]; [7]
  combination index (C.I.): 0.9 arbitrary units
  EC50: 2.35 µM
[1]; [8]
  combination index (C.I.): 0.9 arbitrary units
  EC50: 2.21 µM
[1]; [9]
  combination index (C.I.): 0.9 arbitrary units
  EC50: 2.26 µM
[1]; no second agent (control of Table 5.1.1)
  EC50: 2.59 µM
[1]; no second agent (control of Table 5.1.2)
  EC50: 0.305 µM
[1]; no second agent (control of Table 5.1.3)
  EC50: 2.37 µM
[2]
  genotoxicity, in particular clastogenicity or aneugenicity: no evidence of genotoxicity
